Peptide text beside a SMILES is read from it. * marks the point of attachment. Acetyl(1-adamantyl) = O=C(CC12CC3CC(CC(C3)C1)C2)*; Lauroyl = CCCCCCCCCCCC(=O)*; Octanoyl = CCCCCCCC(=O)*
Key:
Format in all cases: cell-based
[1] = tested on: methicillin-resistant S. aureus ATCC 33592
Method: (§1) The synthesized SPRLPs were evaluated for their antibacterial potency against a panel of Gram-positive and Gram-negative bacteria (Tables 2 & 3). Some of the included pathogens were collected from patients visiting or admitted to participating Canadian hospitals through the CAN-ICU (27) and CANWARD (28) national surveillance studies. Antibacterial activity was assessed using minimum inhibitory concentration (MIC) against various clinical pathogens.
(§2) Isolates used in this study were either obtained from the American Type Culture Collection (ATCC), the Canadian National Intensive Care Unit (CAN-ICU) surveillance study (27) or the Canadian Ward Surveillance (CANWARD) study (28). Clinical isolates belonging to the CAN-ICU and CANWARD studies were recovered from patients suffering a presumed infectious disease entering or admitted in a participating medical center across Canada during the time of study. MDR P. aeruginosa strains in this study refer to those that are resistant to aminoglycosides, fluoroquinolones, cephalosporins, and carbapenems while XDR strains are those that are resistant to aminoglycosides, fluoroquinolones, cephalosporins, carbapenems, aztreonam and penicillin+β-lactamase inhibitor combination (39, 40).
(§3) Microbroth dilution susceptibility test following the Clinical and Laboratory Standards Institute (CLSI) guidelines (32) was performed to assess the in vitro antibacterial activity of SPRLPs. Overnight grown bacterial cultures were diluted in saline to achieve a 0.5 McFarland turbidity, followed by 1:50 dilution in Mueller-Hinton broth (MHB) for inoculation to a final concentration of 5×10^5 colony forming units/mL. The assay was done on a 96-well plate to which the agents of interest were 2-fold serially diluted in MHB and incubated with equal volumes of inoculum at 37° C. for 18 hours. MIC was determined as the lowest concentration to inhibit visible bacterial growth in form of turbidity, which was confirmed using EMax Plus microplate reader (Molecular Devices, USA) at a wavelength of 590 nm. The well containing MHB broth with or without bacterial cells was used as positive or negative control, respectively.

[2] = tested on: methicillin-resistant S. epidermidis CAN-ICU 61589 (ceftazidime-resistant); settings: methicillin-resistant CAN-ICU 61589 (ceftazidime-resistant)
Method: as §1, §2, §3

E. faecium ATCC 27270 = tested on: E. faecium ATCC 27270
Method: as §1, §2, §3

[3] = tested on: methicillin-susceptible Staphylococcus epidermidis CANWARD-2008 81388; settings: methicillin-susceptible CANWARD-2008 81388
Method: as §1, §2, §3

[4] = tested on: P. aeruginosa wild-type PAO1
Method: as §1, §2, §3

[5] = tested on: P. aeruginosa CAN-ICU 62308 (gentamicin-resistant)
Method: as §1, §2, §3

[6] = tested on: E. coli CAN-ICU 63074 (amikacin-intermediate resistant)
Method: as §1, §2, §3

[7] = tested on: E. coli CANWARD-2011 97615 (gentamicin-, tobramycin-, ciprofloxacin-resistant) aac(3′)iia
Method: as §1, §2, §3

[8] = tested on: E. coli CAN-ICU 61714 (gentamicin-resistant)
Method: as §1, §2, §3

P. aeruginosa ATCC 27853 = tested on: P. aeruginosa ATCC 27853
Method: as §1, §2, §3

E. faecalis ATCC 29212 = tested on: E. faecalis ATCC 29212
Method: as §1, §2, §3

K. pneumoniae ATCC 13883 = tested on: K. pneumoniae ATCC 13883
Method: as §1, §2, §3

S. aureus ATCC 29213 = tested on: S. aureus ATCC 29213
Method: as §1, §2, §3

[9] = tested on: P. aeruginosa CANWARD-2011 96846 (gentamicin-, tobramycin-resistant)
Method: as §1, §2, §3

E. coli ATCC 25922 = tested on: E. coli ATCC 25922
Method: as §1, §2, §3

[10] = tested on: A. baumannii CAN-ICU 63169
Method: as §1, §2, §3

[11] = tested on: S. maltophilia CAN-ICU 62584
Method: as §1, §2, §3

pig erythrocytes = settings: red cells of porcine
Method: Since PRAMPs are able to kill bacteria through membrane lysis, it is imperative to evaluate whether these synthesized SPRLPs also lyse eukaryotic membranes. The ability to lyse porcine red blood cells was assessed and the minimum concentration to result in 5% erythrocyte hemolysis (MHC) was reported (Tables 2 & 3). […] This greatly limits their therapeutic potential. […] However, all other SPRLPs were non-hemolytic (MHC>512 μg/mL).
The ability of SPRLPs to lyse eukaryotic red blood cells were quantified by the amount of hemoglobin released upon incubation with pig erythrocytes, following published protocols (37, 39). Fresh pig blood drawn from pig antecubital vein was centrifuged at 1000×g for 5 minutes at 4° C., washed with PBS three times and re-suspended in the same buffer, consecutively. Then, agents of interest were 2-fold serially diluted in PBS on 96-well plate and mixed with equal volumes of erythrocyte solution. Post 1-hour incubation at 37° C., intact cells were pelleted by centrifugation at 1000×g for 5 minutes at 4° C. The supernatant was then transferred to a new 96-well plate. The hemoglobin released was measured via EMax Plus microplate reader (Molecular Devices, USA) at 570 nm wavelength. Erythrocytes in PBS with or without 0.1% Triton X-100 was used as negative or positive control, respectively.

Row | MIC [1] [µg/mL] | MIC [2] [µg/mL] | MIC (E. faecium ATCC 27270) [µg/mL] | MIC [3] [µg/mL] | MIC [4] [µg/mL] | MIC [5] [µg/mL] | MIC [6] [µg/mL] | MIC [7] [µg/mL] | MIC [8] [µg/mL] | MIC (P. aeruginosa ATCC 27853) [µg/mL] | MIC (E. faecalis ATCC 29212) [µg/mL] | MIC (K. pneumoniae ATCC 13883) [µg/mL] | MIC (S. aureus ATCC 29213) [µg/mL] | MIC [9] [µg/mL] | MIC (E. coli ATCC 25922) [µg/mL] | MIC [10] [µg/mL] | MIC [11] [µg/mL] | SMILES | MHC (minimum concentration that resulted in 5% red blood cell hemolysis) (pig erythrocytes) [µg/mL]
1 | >128 | >128 | >128 | >128 | >512 | >128 | >128 | >128 | >128 | >128 | >128 | >128 | >128 | >128 | >128 | >128 | >128 | CCCCCCCC(=O)N1CCC[C@H]1C(=O)N[C@@H](CCCNC(=N)N)C(=O)N1CCC[C@H]1C(=O)NCC(=O)N1CCC[C@H]1C(=O)N[C@@H](CCCNC(=N)N)C(=O)N1CCC[C@H]1C(N)=O [Compound C8-PGP, CH3(CH2)6CO-PRPGPRP-NH2] (Octanoyl-PRPGPRP-NH2) | >512
2 | >128 | >128 | >128 | >128 | >512 | >128 | >128 | >128 | >128 | >128 | >128 | >128 | >128 | >128 | >128 | >128 | >128 | N=C(N)NCCC[C@H](NC(=O)[C@@H]1CCCN1C(=O)[C@H](Cc1c[nH]c2ccccc12)NC(=O)[C@@H]1CCCN1C(=O)[C@H](CCCNC(=N)N)NC(=O)[C@@H]1CCCN1C(=O)CC12CC3CC(CC(C3)C1)C2)C(=O)N1CCC[C@H]1C(N)=O [Ad-PWP, Adamantyl-CH2CO-PRPWPRP-NH2] ({Acetyl(1-adamantyl)}-PRPWPRP-NH2) | >512
3 | >128 | >128 | >128 | >128 | >512 | >128 | >128 | >128 | >128 | >128 | >128 | >128 | >128 | >128 | >128 | >128 | >128 | CCCCCCCC(=O)N1CCC[C@H]1C(=O)N[C@@H](CCCNC(=N)N)C(=O)N1CCC[C@H]1C(=O)N[C@@H](Cc1c[nH]c2ccccc12)C(=O)N1CCC[C@H]1C(=O)N[C@@H](CCCNC(=N)N)C(=O)N1CCC[C@H]1C(N)=O [Compound C8-PWP, CH3(CH2)6CO-PRPWPRP-NH2] (Octanoyl-PRPWPRP-NH2) | >512
4 | >128 | >128 | >128 | >128 | >512 | >128 | >128 | >128 | >128 | >128 | >128 | >128 | >128 | >128 | >128 | >128 | >128 | N=C(N)NCCC[C@H](NC(=O)[C@@H]1CCCN1C(=O)CNC(=O)[C@@H]1CCCN1C(=O)[C@H](CCCNC(=N)N)NC(=O)[C@@H]1CCCN1C(=O)CC12CC3CC(CC(C3)C1)C2)C(=O)N1CCC[C@H]1C(N)=O [Ad-PGP, Adamantyl-CH2CO-PRPGPRP-NH2] ({Acetyl(1-adamantyl)}-PRPGPRP-NH2) | >512
5 | 128 | 64 | 128 | 64 | 512 | >128 | >128 | >128 | >128 | >128 | 128 | >128 | 128 | >128 | >128 | >128 | >128 | CCCCCCCCCCCC(=O)N1CCC[C@H]1C(=O)N[C@@H](CCCNC(=N)N)C(=O)N1CCC[C@H]1C(=O)N[C@@H](CC(C)C)C(=O)N1CCC[C@H]1C(=O)N[C@@H](CCCNC(=N)N)C(=O)N1CCC[C@H]1C(N)=O [Compound C12-PLP, CH3(CH2)10CO-PRPLPRP-NH2] (Lauroyl-PRPLPRP-NH2) | >512
6 | >128 | >128 | >128 | 128 | >512 | >128 | >128 | >128 | >128 | >128 | >128 | >128 | >128 | >128 | >128 | >128 | >128 | CCCCCCCCCCCC(=O)N1CCC[C@H]1C(=O)N[C@@H](CCCNC(=N)N)C(=O)N1CCC[C@H]1C(=O)NCC(=O)N1CCC[C@H]1C(=O)N[C@@H](CCCNC(=N)N)C(=O)N1CCC[C@H]1C(N)=O [Compound C12-PGP, CH3(CH2)10CO-PRPGPRP-NH2] (Lauroyl-PRPGPRP-NH2) | >512
7 | >128 | >128 | >128 | >128 | >512 | >128 | >128 | >128 | >128 | >128 | >128 | >128 | >128 | >128 | >128 | >128 | >128 | CCCCCCCC(=O)N1CCC[C@H]1C(=O)N[C@@H](CCCNC(=N)N)C(=O)N1CCC[C@H]1C(=O)N[C@@H](CC(C)C)C(=O)N1CCC[C@H]1C(=O)N[C@@H](CCCNC(=N)N)C(=O)N1CCC[C@H]1C(N)=O [Compound C8-PLP, CH3(CH2)6CO-PRPLPRP-NH2] (Octanoyl-PRPLPRP-NH2) | >512
